Data as given in paper PMC7531004, “Discovery of gramicidin A analogues with altered activities by multidimensional screening of a one-bead-one-compound library” (Nature Communications, 2020).
Where a SMILES comes first, the peptide text is derived from it. [ ]: non-standard residue; d: D form. The star is where a group is joined. NHCH2CH2OH = OCCN*; For = O=C*

Legend:
[1] = H+/Na+ transport assay of bead-derived peptides (one-point); type: biochemical; set-up: key: relative activity; mean of two control wells = 1.00; settings: bead-derived peptide solution, EYPC/EYPG LUVs;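 further: relative to parent gramicidin A activity set to 1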
Method in brief: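 One-point screen: peptide + pyranine-loaded LUVs, 30 min RT with vortexing, 96-well. Read-out is fluorescence intensity scaled as 100 × (Ix – I0)/(Imax – I0). Imax from Triton X-100, I0 from untreated vesicles, and the mean of the two control wells is set to 1.00.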

[2] = test system: Streptococcus pyogenes SSI-9; test: Antibacterial activity assay of bead-derived peptides (three concentrations); type: cell-based; set-up: key: +++: inhibition by the 640-fold diluted peptide solution; ++: inhibition by the 160-fold diluted solution; +: inhibition by the 40-fold diluted solution; -: no inhibition; settings: S. pyogenes, bead-derived peptide solution, three concentrations
Method in brief: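 Library peptide stock applied undiluted, 4-fold and 16-fold diluted in DMSO to S. pyogenes SSI-9 (2 × 10^5 CFU) in cation-adjusted Mueller Hinton broth with 5% laked horse blood. After 18 h at 37 °C, growth judged by visible cell precipitation.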

[3] = test system: P388 mouse leukemia cells; settings: 92 h
Method in brief: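 P388 cells at 1 × 10^4 cells/mL (final) were exposed to library peptides (stocks diluted 250-fold in RPMI1640/10% FBS) for 92 h at 37 °C, 5% CO2. Viable cells were counted by WST-1/1-methoxy PMS (4 h), absorbance 415 nm, and expressed as cell viability (%).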

SMILES | H+/Na+ transport activity normalized against the value of 1 (1.00) [1] | antibacterial activity [2] | cell viability/% [3] [%]
CC(C)C[C@@H](NC(=O)[C@H](C)NC(=O)CNC(=O)[C@@H](NC=O)C(C)C)C(=O)N[C@@H](C)C(=O)N[C@H](CC(C)C)C(=O)N[C@H](C(=O)N[C@@H](C(=O)N[C@@H](Cc1c[nH]c2ccccc12)C(=O)N[C@@H](C(=O)N[C@@H](Cc1c[nH]c2ccccc12)C(=O)N[C@@H](C(=O)N[C@@H](Cc1c[nH]c2ccccc12)C(=O)N[C@@H](C(=O)N[C@@H](Cc1c[nH]c2ccccc12)C(=O)NCCO)C(C)C)C(C)C)C(C)C)C(C)C)C(C)C [compound 10536] (For-VGA[dL]A[dL]V[dV]W[dV]W[dV]W[dV]W-NHCH2CH2OH) | 1.21 | + | 100.0
CC(C)C[C@@H](NC(=O)[C@H](C)NC(=O)CNC(=O)[C@@H](NC=O)C(C)C)C(=O)N[C@@H](C)C(=O)N[C@@H](C(=O)N[C@H](C(=O)N[C@@H](C(=O)N[C@@H](Cc1c[nH]c2ccccc12)C(=O)N[C@H](CC(C)C)C(=O)N[C@@H](Cc1c[nH]c2ccccc12)C(=O)N[C@H](CC(C)C)C(=O)N[C@@H](Cc1c[nH]c2ccccc12)C(=O)N[C@@H](C(=O)N[C@@H](Cc1c[nH]c2ccccc12)C(=O)NCCO)C(C)C)[C@H](C)O)C(C)C)C(C)C [compound 2235] (For-VGA[dL]A[dV]V[dT]W[dL]W[dL]W[dV]W-NHCH2CH2OH) | 1.01 | + | 100.0
CC(C)C[C@@H](NC(=O)[C@H](Cc1c[nH]c2ccccc12)NC(=O)[C@H](NC(=O)[C@H](Cc1c[nH]c2ccccc12)NC(=O)[C@H](NC(=O)[C@H](Cc1c[nH]c2ccccc12)NC(=O)[C@H](NC(=O)[C@@H](NC(=O)[C@H](NC(=O)[C@H](C)NC(=O)[C@H](NC(=O)[C@H](C)NC(=O)CNC(=O)[C@@H](NC=O)C(C)C)[C@H](C)O)C(C)C)C(C)C)C(C)C)C(C)C)C(C)C)C(=O)N[C@@H](Cc1c[nH]c2ccccc12)C(=O)NCCO [compound 9354] (For-VGA[dT]A[dV]V[dV]W[dV]W[dV]W[dL]W-NHCH2CH2OH) | 1.16 | - | 100.0
CC(C)C[C@@H](NC(=O)[C@H](C)NC(=O)CNC(=O)[C@@H](NC=O)C(C)C)C(=O)N[C@@H](C)C(=O)N[C@@H](C(=O)N[C@H](C(=O)N[C@@H](C(=O)N[C@@H](Cc1c[nH]c2ccccc12)C(=O)N[C@@H](C(=O)N[C@@H](Cc1c[nH]c2ccccc12)C(=O)N[C@@H](C(=O)N[C@@H](Cc1c[nH]c2ccccc12)C(=O)N[C@@H](C(=O)N[C@@H](Cc1c[nH]c2ccccc12)C(=O)NCCO)C(C)C)C(C)C)C(C)C)C(C)C)C(C)C)C(C)C [compound 7516] (For-VGA[dL]A[dV]V[dV]W[dV]W[dV]W[dV]W-NHCH2CH2OH) | 1.03 | + | 100.0
CC(C)C[C@@H](NC(=O)[C@H](C)NC(=O)CNC(=O)[C@@H](NC=O)C(C)C)C(=O)N[C@@H](C)C(=O)N[C@H](CC(C)C)C(=O)N[C@H](C(=O)N[C@H](CC(C)C)C(=O)N[C@@H](Cc1c[nH]c2ccccc12)C(=O)N[C@@H](C(=O)N[C@@H](Cc1c[nH]c2ccccc12)C(=O)N[C@H](CC(C)C)C(=O)N[C@@H](Cc1c[nH]c2ccccc12)C(=O)N[C@@H](C(=O)N[C@@H](Cc1c[nH]c2ccccc12)C(=O)NCCO)[C@H](C)O)C(C)C)C(C)C [compound 5508] (For-VGA[dL]A[dL]V[dL]W[dV]W[dL]W[dT]W-NHCH2CH2OH) | 1.19 | - | 100.0
